Some test systems named below: DU-145; NCI/ADR-RES; EKVX; OVCAR-5; SF-539; A498; RPMI-8226; SK-OV-3; SNB-75; Malme-3M; SK-MEL-5; MCF7; K562; UO-31; NCI-H23; UACC-257; HCT-15; PC-3; A549; MDA-MB-231.
Holding throughout (experiment): NCI anticancer screen, dose series, 48 h

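Growth conditions: 96-well plates. Treatment: test compound, 48 hours, 5 concentrations. Analysis: linear interpolation between bracketing concentrations; unreached endpoints set to highest concentration. Here, GI50 denotes the concentration required for 50% inhibition of growth.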 Activity calls are given as the source filed them. No stated cut-off is given here; in the data, active = GI50 up to about 1.1 µM and inactive = higher.

As to `CCN(CC)CCOc1ccc(N2Cc3ccccc3C2=O)cc1`, the GI50 in the experiment with DU-145, in the experiment with NCI/ADR-RES, with EKVX, in the experiment on OVCAR-5, with SF-539 and in the experiment with A498 was > 10 µM (inactive) each time. Besides, the GI50 in the experiment with RPMI-8226, in the experiment with SK-OV-3, in the experiment on SNB-75, in the experiment on Malme-3M, in the experiment with SK-MEL-5 and with MCF7 was > 10 µM (inactive) each time. In addition, the GI50 was > 10 µM (inactive) in the experiment on K562; > 10 µM (inactive) in the experiment with UO-31; > 10 µM (inactive) in the experiment with NCI-H23; > 10 µM (inactive) in the experiment on UACC-257; over 10 µM in the experiment with HCT-15; > 10 µM (inactive) with PC-3. For the same molecule, the GI50 in the experiment on A549 and with MDA-MB-231 was > 10 µM (inactive) each time.

In the case of `O[C@H]1[C@H](O)[C@@H](Cn2nnc(-c3ccccc3)c2-c2ccccc2)OCO[C@@H]1Cn1nnc(-c2ccccc2)c1-c1ccccc1`, the GI50 was 7.4 µM (inactive) in the experiment with DU-145; 7.24 µM (inactive) in the experiment on NCI/ADR-RES; 6.47 µM (inactive) with EKVX; 2.58 µM (inactive) in the experiment on OVCAR-5; 3.16 µM (inactive) in the experiment with SF-539; 6.47 µM (inactive) with A498. Besides, the GI50 in the experiment on RPMI-8226 was 2.32 µM (inactive); in the experiment with SK-OV-3, 3.38 µM (inactive); in the experiment on SNB-75, 7.82 µM (inactive); in the experiment with Malme-3M, 9.42 µM (inactive); with SK-MEL-5, 4.32 µM (inactive); in the experiment on MCF7, 3.24 µM (inactive). In addition, the GI50 with K562 was 4.01 µM (inactive); in the experiment with UO-31, 4.19 µM (inactive); in the experiment with NCI-H23, 5.92 µM (inactive); in the experiment with UACC-257 it was 4.32 µM (inactive); in the experiment on HCT-15, 3.1 µM; in the experiment with PC-3, 2.68 µM (inactive). Further, the values for the GI50 in the experiment with A549 and in the experiment on MDA-MB-231 were 3.74 µM (inactive) and 6.47 µM (inactive), respectively.

Regarding `C[N+]1(CCC(=O)c2ccccc2)CCC2CCC(C2)C1` (stereo not drawn), the GI50 in the experiment on DU-145, with NCI/ADR-RES, in the experiment on EKVX, in the experiment with OVCAR-5, in the experiment on SF-539 and in the experiment on A498 was > 100 µM (inactive) in each case. Moreover, the GI50 in the experiment on RPMI-8226, in the experiment with SK-OV-3, in the experiment with SNB-75, with Malme-3M, in the experiment with SK-MEL-5 and in the experiment on MCF7 was > 100 µM (inactive) in each case. Besides, the GI50 in the experiment on K562 was > 100 µM (inactive); in the experiment on UO-31, > 100 µM (inactive); with NCI-H23, > 100 µM (inactive); in the experiment on UACC-257, > 100 µM (inactive); in the experiment on HCT-15 it was over 100 µM; in the experiment on PC-3 it was > 100 µM (inactive). For the same molecule, the GI50 in the experiment on A549 and with MDA-MB-231 was > 100 µM (inactive) each time.

`COc1ccc(C(C)NNC(=O)c2cc[n+]([BH2-]C#N)cc2)cc1OC` (stereo not drawn): the GI50 with DU-145, in the experiment with NCI/ADR-RES, with EKVX, with OVCAR-5, in the experiment with SF-539 and in the experiment with A498 was > 100 µM (inactive) throughout. Also, the GI50 in the experiment on RPMI-8226 is > 100 µM (inactive); with SK-OV-3, 54.3 µM (inactive); in the experiment on SNB-75, > 100 µM (inactive); in the experiment with Malme-3M it was > 100 µM (inactive); in the experiment with SK-MEL-5 it was > 100 µM (inactive); in the experiment on MCF7, > 100 µM (inactive). Further, the GI50 with K562 is > 100 µM (inactive); with UO-31, > 100 µM (inactive); in the experiment on NCI-H23, > 100 µM (inactive); in the experiment with UACC-257 it was > 100 µM (inactive); in the experiment with HCT-15, over 100 µM; in the experiment on PC-3, > 100 µM (inactive). The GI50 with A549 and in the experiment on MDA-MB-231 was > 100 µM (inactive) throughout.

For the molecule `COCCc1c(C)c(C#N)c2n(C)c3ccccc3n2c1=O`, the GI50 with DU-145, in the experiment with NCI/ADR-RES, in the experiment with EKVX, in the experiment on OVCAR-5, in the experiment on SF-539 and in the experiment with A498 was > 10 µM (inactive) throughout. Besides, the GI50 in the experiment on RPMI-8226, with SK-OV-3, with SNB-75, in the experiment on Malme-3M, in the experiment on SK-MEL-5 and with MCF7 was > 10 µM (inactive) each time. Also, the GI50 in the experiment with K562 was 0.566 µM (active); in the experiment with NCI-H23, > 10 µM (inactive); in the experiment on UACC-257, > 10 µM (inactive); in the experiment with HCT-15, over 10 µM; with PC-3, > 10 µM (inactive); with A549, > 10 µM (inactive). For the same molecule, the GI50 with MDA-MB-231 was > 10 µM (inactive).

As to `COc1cccc([C@H]2C/C(=N\NC(=O)C(=O)N[C@@H](C)c3ccccc3)c3ccccc3N2)c1`, the GI50 was 0.0258 µM (active) in the experiment with DU-145; 7.05 µM (inactive) with NCI/ADR-RES; 0.0927 µM (active) with EKVX; 16.8 µM (inactive) in the experiment with OVCAR-5; 7.82 µM (inactive) with SF-539; 0.0417 µM (active) in the experiment with A498. The GI50 with RPMI-8226 was < 0.01 µM (active); in the experiment with SK-OV-3, 0.0491 µM (active); in the experiment on SNB-75, 8.53 µM (inactive); in the experiment on Malme-3M, > 10 µM (inactive); in the experiment with SK-MEL-5, < 0.01 µM (active); in the experiment on MCF7, 9.38 µM (inactive). Also, the GI50 with K562 was < 0.01 µM (active); with UO-31, 0.0378 µM (active); with NCI-H23, > 10 µM (inactive); with UACC-257, 0.0361 µM (active); in the experiment on HCT-15, under 0.01 µM; with PC-3, 0.0263 µM (active). The GI50 with A549 was 6.15 µM (inactive); in the experiment with MDA-MB-231 it was 0.0923 µM (active).

As to `O=C1NC(=S)N(c2cccc3ccccc23)C(=O)/C1=C/c1c[nH]c2ccccc12`, the GI50 with DU-145 is 1.8 µM (inactive); with NCI/ADR-RES, 3 µM (inactive); in the experiment on EKVX, 2.06 µM (inactive); in the experiment with OVCAR-5, 2.4 µM (inactive); in the experiment with SF-539 it was 2.23 µM (inactive); with A498 it was 2.05 µM (inactive). Besides, the GI50 was 2.02 µM (inactive) in the experiment with RPMI-8226; 4.02 µM (inactive) in the experiment on SK-OV-3; 2.43 µM (inactive) with SNB-75; 2.23 µM (inactive) in the experiment with Malme-3M; 1.66 µM (inactive) in the experiment with SK-MEL-5; 2.54 µM (inactive) with MCF7. For the same molecule, the GI50 in the experiment with K562 is 2.38 µM (inactive); in the experiment on UO-31 it was 2.15 µM (inactive); in the experiment with NCI-H23 it was 1.81 µM (inactive); with UACC-257, 2.31 µM (inactive); in the experiment with HCT-15, 1.67 µM; in the experiment on PC-3, 2.36 µM (inactive). Moreover, the GI50 is 5.12 µM (inactive) with A549 and 2.16 µM (inactive) in the experiment on MDA-MB-231.

For the molecule `Cc1ccc(C(=O)Nc2ccc(CP(=O)(O)O)cc2CP(=O)(O)O)cc1N`, the GI50 with DU-145, with NCI/ADR-RES, in the experiment on EKVX, in the experiment on OVCAR-5, in the experiment on SF-539 and with A498 was > 100 µM (inactive) in each case. Moreover, the GI50 in the experiment with RPMI-8226, in the experiment on SK-OV-3, in the experiment on SNB-75, with Malme-3M, with SK-MEL-5 and with MCF7 was > 100 µM (inactive) in each case. Besides, the GI50 was > 100 µM (inactive) in the experiment with K562; > 100 µM (inactive) with UO-31; > 100 µM (inactive) in the experiment on NCI-H23; > 100 µM (inactive) in the experiment on UACC-257; over 100 µM in the experiment with HCT-15; > 100 µM (inactive) with PC-3. For the same molecule, the GI50 in the experiment on A549 and in the experiment with MDA-MB-231 was > 100 µM (inactive) throughout.

As to `CCOC(=O)c1c(O)nc(O)c(CC)c1C`, the GI50 is > 100 µM (inactive) with DU-145; > 100 µM (inactive) in the experiment on NCI/ADR-RES; > 100 µM (inactive) with EKVX; > 100 µM (inactive) with OVCAR-5; 67 µM (inactive) with SF-539; > 100 µM (inactive) with A498. The GI50 in the experiment with RPMI-8226, with SK-OV-3, with SNB-75, with Malme-3M, in the experiment on SK-MEL-5 and with MCF7 was > 100 µM (inactive) in each case. In addition, the GI50 in the experiment on K562 was > 100 µM (inactive); in the experiment on UO-31 it was > 100 µM (inactive); in the experiment on NCI-H23, > 100 µM (inactive); in the experiment on UACC-257 it was > 100 µM (inactive); with HCT-15, over 100 µM; in the experiment with PC-3, > 100 µM (inactive). The GI50 in the experiment on A549 and in the experiment on MDA-MB-231 was > 100 µM (inactive) throughout.

On to `COc1ccccc1CCN1CCN(CCCc2ccccc2)CC1`, for which the GI50 was > 100 µM (inactive) in the experiment with DU-145; > 100 µM (inactive) in the experiment with NCI/ADR-RES; > 100 µM (inactive) in the experiment with EKVX; > 100 µM (inactive) with OVCAR-5; > 100 µM (inactive) in the experiment with SF-539; 70.8 µM (inactive) with A498. The GI50 in the experiment on RPMI-8226 is 39.4 µM (inactive); with SK-OV-3, > 100 µM (inactive); with SNB-75, > 100 µM (inactive); in the experiment with Malme-3M it was > 100 µM (inactive); in the experiment with SK-MEL-5, 22.1 µM (inactive); with MCF7, 79.6 µM (inactive). Moreover, the GI50 in the experiment with K562 was 34.5 µM (inactive); with UO-31 it was 46.3 µM (inactive); in the experiment with UACC-257, 60.4 µM (inactive); in the experiment with HCT-15 it was 42.6 µM; with PC-3 it was > 100 µM (inactive); in the experiment with A549, 85.7 µM (inactive). Besides, the GI50 with MDA-MB-231 is > 100 µM (inactive).
